# Reference: US6461997B1, “Triazole sulfones having herbicidal activity” (Monsanto Technology LLC, priority 1999, dated 2002)
# Assays:
# [1] = system: CHEAL (common lambsquarters); assay: Pre-emergence herbicidal activity, warm season; assay type: in vivo, Chenopodium album; conditions: GR80 = lowest tested rate (300, 100, 30, 10 g/ha) with 80% or greater inhibition; approx. 14 days after treating; 30/21° C.
# Summary of the method: (§1)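 Seeds sown in sterilised fertilised topsoil received surface-applied compound in 50:50 acetone/water, typically at 300, 100, 30 and 10 g/ha, then greenhouse-grown at 30/21° C (warm-season species) or 18/13° C (cool-season species). Percent inhibition versus untreated plants was scored at about 14 days, giving GR80; an asterisk marks activity short of 80% at the top rate.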
# [2] = system: CONAR (field bindweed); assay: Pre-emergence herbicidal activity, warm season; assay type: in vivo, Convolvulus arvensis; conditions: GR80 = lowest tested rate (300, 100, 30, 10 g/ha) with 80% or greater inhibition; approx. 14 days after treating; 30/21° C.
# Experimental: (§2) Tables 5 to 8 summarize results of tests conducted as described below to determine the pre-emergence herbicidal activity, in the form of a GR80 value, of illustrative compounds of this invention. […] Compounds of the invention were typically applied at rates of 300, 100, 30, and 10 g/ha. Where herbicidal activity was evident but 80% inhibition was not achieved at the highest rate tested, an asterisk (*) is shown in the following tables.
# (§3) The pre-emergence tests were conducted by the following procedure. Topsoil was sieved to pass through a 1.27 cm screen. Fertilizer was added to the topsoil and the mixture was then sterilized by heating. The topsoil mixture was placed in a pot and compacted to a depth of 1.0 to 1.25 cm from the top of the pot. Seeds of each of several monocotyledonous and dicotyledonous annual plant species were placed on top of the soil. Additional soil was subsequently placed over the seeds to level-fill the pot. A known amount of each test compound dissolved or suspended in an appropriate organic solvent was diluted with a 50:50 mix of acetone and water and applied to the surface of the soil. After treatment the plants were placed in a greenhouse where they received 0.64 cm of overhead irrigation. All subsequent watering consisted of a light overhead mist and/or subirrigation as needed for germination and growth. Tables 5 and 6 below relate to warm season plant species which were placed after pre-emergence treatment in a greenhouse with a 30/21° C. day/night temperature regime. Tables 7 and 8 below relates to cool season plant species placed after pre-emergence treatment in a greenhouse or growth chamber with an 18/13° C. day/night temperature regime.
# (§4) Approximately 14 days after planting and treating, the plants were observed and herbicidal efficacy recorded as percent inhibition by comparison with untreated plants.
# (§5) The plant species usually regarded as weeds which were utilized in the tests are identified in the tables below according to the following legend, in which “d” indicates a dicotyledonous species and “m” a monocotyledonous species. All monocotyledonous species included in the tests herein are grasses.
# [3] = system: POROL (common purslane); assay: Pre-emergence herbicidal activity, warm season; assay type: in vivo, Portulaca oleracea; conditions: GR80 = lowest tested rate (300, 100, 30, 10 g/ha) with 80% or greater inhibition; approx. 14 days after treating; 30/21° C.
# Summary of the method: as §1
# [4] = system: ECHCG (barnyardgrass); assay: Pre-emergence herbicidal activity, warm season; assay type: in vivo, Echinochloa crus-galli; conditions: GR80 = lowest tested rate (300, 100, 30, 10 g/ha) with 80% or greater inhibition; approx. 14 days after treating; 30/21° C.
# Summary of the method: as §1
# [5] = system: PANMI (wild proso millet); assay: Pre-emergence herbicidal activity, warm season; assay type: in vivo, Panicum miliaceum; conditions: GR80 = lowest tested rate (300, 100, 30, 10 g/ha) with 80% or greater inhibition; approx. 14 days after treating; 30/21° C.
# Summary of the method: (§6)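 Seeds were sown in sterilized, fertilized topsoil, covered, and the soil surface was sprayed with compound in 50:50 acetone/water at 300, 100, 30 and 10 g/ha. Pots were held at 30/21 °C day/night (PANMI, DIGSA) or 18/13 °C (ALOMY, POLCO). GR80 came from percent inhibition versus untreated plants at about 14 days.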
# [6] = system: SORHA (johnsongrass (seedling)); assay: Pre-emergence herbicidal activity, warm season; assay type: in vivo, Sorghum halepense; conditions: GR80 = lowest tested rate (300, 100, 30, 10 g/ha) with 80% or greater inhibition; approx. 14 days after treating; 30/21° C.
# Summary of the method: as §1
# [7] = system: SETFA (giant foxtail); assay: Pre-emergence herbicidal activity, warm season; assay type: in vivo, Setaria faberi; conditions: GR80 = lowest tested rate (300, 100, 30, 10 g/ha) with 80% or greater inhibition; approx. 14 days after treating; 30/21° C.
# Summary of the method: as §1
# [8] = system: PANDI (fall panicum); assay: Pre-emergence herbicidal activity, warm season; assay type: in vivo, Panicum dichotomiflorum; conditions: GR80 = lowest tested rate (300, 100, 30, 10 g/ha) with 80% or greater inhibition; approx. 14 days after treating; 30/21° C.
# Experimental: as §2, §3, §4, §5
# [9] = system: SORVU (shattercane); assay: Pre-emergence herbicidal activity, warm season; assay type: in vivo, Sorghum vulgare; conditions: GR80 = lowest tested rate (300, 100, 30, 10 g/ha) with 80% or greater inhibition; approx. 14 days after treating; 30/21° C.
# Summary of the method: as §1
# [10] = system: BRAPP (broadleaf signalgrass); assay: Pre-emergence herbicidal activity, warm season; assay type: in vivo, Brachiaria platyphylla; conditions: GR80 = lowest tested rate (300, 100, 30, 10 g/ha) with 80% or greater inhibition; approx. 14 days after treating; 30/21° C.
# Summary of the method: as §1
# [11] = system: GALAP (catchweed bedstraw); assay: Pre-emergence herbicidal activity, cool season; assay type: in vivo, Galium aparine; conditions: lowest tested rate with 80% or greater inhibition; rates 300, 100, 30, 10 g/ha; about 14 days
# Summary of the method: as §1
# [12] = system: POLCO (wild buckwheat); assay: Pre-emergence herbicidal activity, cool season; assay type: in vivo, Polygonum convolvulus; conditions: lowest tested rate with 80% or greater inhibition; rates 300, 100, 30, 10 g/ha; about 14 days
# Summary of the method: as §6
# [13] = system: SINAR (wild mustard); assay: Pre-emergence herbicidal activity, cool season; assay type: in vivo, Sinapis arvensis; conditions: lowest tested rate with 80% or greater inhibition; rates 300, 100, 30, 10 g/ha; about 14 days
# Summary of the method: as §1
# [14] = system: VERPE (creeping speedwell); assay: Pre-emergence herbicidal activity, cool season; assay type: in vivo, Veronica persicaria; conditions: lowest tested rate with 80% or greater inhibition; rates 300, 100, 30, 10 g/ha; about 14 days
# Summary of the method: as §1
# [15] = system: SASKR (russian thistle); assay: Pre-emergence herbicidal activity, cool season; assay type: in vivo, Salsola kali; conditions: lowest tested rate with 80% or greater inhibition; rates 300, 100, 30, 10 g/ha; about 14 days
# Summary of the method: as §1
# [16] = system: STEME (common chickweed); assay: Pre-emergence herbicidal activity, cool season; assay type: in vivo, Stellaria media; conditions: lowest tested rate with 80% or greater inhibition; rates 300, 100, 30, 10 g/ha; about 14 days
# Summary of the method: as §1
# [17] = system: LAMPU (purple deadnettle); assay: Pre-emergence herbicidal activity, cool season; assay type: in vivo, Lamium purpureum; conditions: lowest tested rate with 80% or greater inhibition; rates 300, 100, 30, 10 g/ha; about 14 days
# Summary of the method: as §1
# [18] = system: SETVI (green foxtail); assay: Pre-emergence herbicidal activity, cool season; assay type: in vivo, Setaria viridis; conditions: GR80 = lowest tested rate (300, 100, 30, 10 g/ha) with 80% or greater inhibition; approx. 14 days after treating; 18/13° C.
# Summary of the method: as §1
# [19] = system: AVEFA (wild oat); assay: Pre-emergence herbicidal activity, cool season; assay type: in vivo, Avena fatua; conditions: GR80 = lowest tested rate (300, 100, 30, 10 g/ha) with 80% or greater inhibition; approx. 14 days after treating; 18/13° C.
# Experimental: as §2, §3, §4, §5
# [20] = system: AGSST (creeping bentgrass); assay: Pre-emergence herbicidal activity, cool season; assay type: in vivo, Agrostis stolonifera; conditions: GR80 = lowest tested rate (300, 100, 30, 10 g/ha) with 80% or greater inhibition; approx. 14 days after treating; 18/13° C.
# Summary of the method: as §1
smiles,measurement,setting,value
CCSC(F)(F)S(=O)(=O)c1ncn(C(=O)N(C)C)n1 [Example 49],Pre-emergence activity (GR80) CHEAL,[1],300 g/ha
same,Pre-emergence activity (GR80) CONAR,[2],300 g/ha
same,Pre-emergence activity (GR80) POROL,[3],300 g/ha
same,Pre-emergence activity (GR80) ECHCG,[4],300 g/ha
same,Pre-emergence activity (GR80) PANMI,[5],300 g/ha
same,Pre-emergence activity (GR80) SORHA,[6],300 g/ha
same,Pre-emergence activity (GR80) SETFA,[7],300 g/ha
same,Pre-emergence activity (GR80) PANDI,[8],300 g/ha
same,Pre-emergence activity (GR80) SORVU,[9],300 g/ha
same,Pre-emergence activity (GR80) BRAPP,[10],300 g/ha
same,"Pre-emergence activity GR80, GALAP",[11],300 g/ha
same,"Pre-emergence activity GR80, POLCO",[12],[empty]
same,"Pre-emergence activity GR80, SINAR",[13],300 g/ha
same,"Pre-emergence activity GR80, VERPE",[14],300 g/ha
same,"Pre-emergence activity GR80, SASKR",[15],[empty]
same,"Pre-emergence activity GR80, STEME",[16],300 g/ha
same,"Pre-emergence activity GR80, LAMPU",[17],300 g/ha
same,Pre-emergence activity (GR80) SETVI,[18],300 g/ha
same,Pre-emergence activity (GR80) AVEFA,[19],300 g/ha
same,Pre-emergence activity (GR80) AGSST,[20],100 g/ha
